In PubChem BioAssay (NCI) one finds TGI and GI50 data, which are given here for 14 compounds.

“And” between values parts separate entries of the source, which are not always exact repeats. Identical values can stand only once.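 Briefly, cells in 96-well plates were exposed to five compound concentrations for 48 h, and endpoints were estimated by linear interpolation. GI50: concentration for 50% inhibition of growth. TGI denotes the concentration required for complete inhibition of growth.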

Some test systems named below: LOX IMVI melanoma; MCF7 breast; PC-3 prostate; RXF 393 renal; T-47D breast; TK-10 renal; HS 578T breast; SR leukemia; DLD-1 colon; DMS 273 small cell lung; KM20L2 colon; LXFL 529 NSCLC.
What all share (assay): inhibition of tumour cell growth, NCI panel, 48 h

On to `[N-]=[N+]=C1N=CN=C1c1ncn[nH]1`, for which the TGI is 40 µM in the assay on LOX IMVI melanoma; greater than 100 µM with MCF7 breast; greater than 100 µM in the assay on PC-3 prostate; greater than 100 µM with RXF 393 renal; 83 µM in the assay on T-47D breast; greater than 100 µM with TK-10 renal.
For the compound `C[Si](C)(OCCS(=O)(=O)O)C1(Cc2cccc3ccccc23)S(=O)(=O)OCCOS1(=O)=O`, the TGI in the assay with HS 578T breast is 95 µM; in the assay with LOX IMVI melanoma, 34 µM; in the assay on MCF7 breast, 39.5 µM; in the assay with PC-3 prostate, 45.4 µM; with T-47D breast, 34.6 µM; in the assay with TK-10 renal, 50.9 µM.
For the compound `CCOP(=O)(OCC)/C(C#N)=C/c1cn(C)cn1`, the TGI with MCF7 breast, in the assay with PC-3 prostate, with RXF 393 renal, in the assay on SR leukemia and with TK-10 renal was greater than 100 µM in each case.
`N[C@H](C(=O)O)[C@H]1ON=C(Cl)[C@@H]1O`: the TGI in the assay with DLD-1 colon is greater than 550 µM; with DMS 273 small cell lung it was greater than 550 µM; in the assay on HS 578T breast, 97.5 µM; with KM20L2 colon, greater than 394 µM; with LOX IMVI melanoma, greater than 550 µM; in the assay with MCF7 breast, greater than 550 µM. Moreover, the TGI in the assay with RXF 393 renal was > 93.8 µM and 232 µM. Besides, the values for the GI50 in the assay with LOX IMVI melanoma, with MCF7 breast and in the assay on RXF 393 renal were 1.54 µM, 0.374 µM and 7.92 µM, respectively.
In the case of `C[C@]12CCC(=O)C=C1CC[C@@H]1[C@@H]2[C@@H](O)C[C@@]2(C)[C@H]1CC[C@]2(O)C(=O)COC(=O)COCC(=O)O`, the TGI in the assay with DLD-1 colon, with DMS 273 small cell lung, in the assay with KM20L2 colon, in the assay with LOX IMVI melanoma and with TK-10 renal was greater than 100 µM each time.
As to `O=S(=O)(CCBr)CCBr`, the TGI in the assay on DLD-1 colon was determined as 8.66 µM; in the assay on DMS 273 small cell lung, 15.1 µM; with KM20L2 colon, 23.2 µM; in the assay with LOX IMVI melanoma, 21.8 µM; with MCF7 breast it was 18.3 µM; with RXF 393 renal it was 5.88 µM.
With `O=C(Nc1cccc(-n2ccc3c(NC(=O)c4ccccc4)nccc32)c1)Nc1cc(C(F)(F)F)cc(C(F)(F)F)c1`, the GI50 is 1.44 µM in the assay with HS 578T breast; 2.12 µM in the assay with LOX IMVI melanoma; 1.65 µM in the assay with MCF7 breast; 1.58 µM with PC-3 prostate; 1.16 µM in the assay on RXF 393 renal; 1.72 µM with SR leukemia. In addition, the GI50 in the assay on T-47D breast was 12.6 µM; in the assay with TK-10 renal, 1.83 µM. Besides, the TGI is greater than 50 µM in the assay on HS 578T breast; greater than 50 µM in the assay on LOX IMVI melanoma; greater than 50 µM in the assay on MCF7 breast; greater than 50 µM in the assay on PC-3 prostate; 3.17 µM in the assay with RXF 393 renal; 6.48 µM in the assay on SR leukemia. The TGI is greater than 50 µM with T-47D breast and 32.5 µM in the assay with TK-10 renal.
As for `COc1ccc(-n2cnnc2-c2nsc3ccccc23)cc1`, the TGI in the assay with DMS 273 small cell lung is greater than 100 µM; with KM20L2 colon, greater than 100 µM; in the assay with LOX IMVI melanoma, greater than 100 µM; with LXFL 529 NSCLC, greater than 100 µM; in the assay with RXF 393 renal, 65.8 µM; in the assay with SR leukemia, greater than 100 µM. For the same compound, the TGI in the assay with TK-10 renal was greater than 100 µM.
On to `O=C(O)c1cc2ccccc2c(N=Nc2ccc(S(=O)(=O)Nc3nccs3)cc2)c1O`, for which the TGI in the assay with HS 578T breast, in the assay on MCF7 breast, with PC-3 prostate, in the assay on RXF 393 renal, in the assay on SR leukemia and in the assay on T-47D breast was greater than 100 µM throughout. This compound returned a TGI in the assay with TK-10 renal greater than 100 µM.
For the compound `Nc1nc(SCc2ccc([N+](=O)[O-])cc2)nc2c1ncn2C1OC(COP(=O)(O)O)C(O)C1O` (centres undefined), the TGI in the assay on DLD-1 colon, with DMS 273 small cell lung, in the assay with KM20L2 colon, with LOX IMVI melanoma, with LXFL 529 NSCLC and in the assay with RXF 393 renal was greater than 100 µM throughout. The TGI in the assay on SR leukemia and with TK-10 renal was greater than 100 µM in each case.
On to `Cc1ccc(N=N/C(=N\NC(=O)c2ccc(C)cc2)c2ccc(N(CCC#N)CCC#N)cc2C)cc1`, for which the TGI in the assay with HS 578T breast was 70 µM; in the assay with LOX IMVI melanoma it was greater than 100 µM; in the assay on MCF7 breast it was greater than 100 µM; in the assay on PC-3 prostate, greater than 100 µM; in the assay on RXF 393 renal, greater than 100 µM; in the assay with SR leukemia, greater than 100 µM. Besides, the TGI in the assay with T-47D breast and with TK-10 renal was greater than 100 µM in each case.
In the case of `CC(C)OP(=O)(OC(C)C)/C(I)=N/Nc1ccc([N+](=O)[O-])cc1`, the TGI with DLD-1 colon, in the assay on DMS 273 small cell lung, with KM20L2 colon, with LXFL 529 NSCLC, in the assay on SR leukemia and in the assay on TK-10 renal was greater than 100 µM throughout.
As to `CC(NC(=O)C(C)NC(=O)C(N)CCP(C)(=O)O)C(=O)O` (centres undefined), the TGI in the assay with DLD-1 colon, in the assay on DMS 273 small cell lung, in the assay with KM20L2 colon, in the assay on LOX IMVI melanoma, in the assay with MCF7 breast and in the assay on RXF 393 renal was greater than 100 µM each time.
In the case of `CC1=Nc2nc(Cl)cn2C(=O)C1(Cl)Cl`, the TGI in the assay on HS 578T breast, in the assay with LOX IMVI melanoma, in the assay on MCF7 breast, in the assay with PC-3 prostate, in the assay with RXF 393 renal and with SR leukemia was greater than 10 µM throughout. Besides, the TGI in the assay on T-47D breast and in the assay with TK-10 renal was greater than 10 µM throughout.
